Read-outs that look alike come from different tables or passages of the source.
How the values were obtained:
Assay type in all cases: cell-based
HRV16 = HRV16 HeLa EC50 (cytopathic effect in H1-HeLa cells); conditions: read-out: HRV16 HeLa EC50
Procedure, shortened: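 Read-out is luminescent cell viability (CellTiter-Glo) after 96 h of infection at 33 °C, scaled between uninfected and infected-untreated wells. Before infection with titrated virus, compounds went onto H1-HeLa cells as triplicate 3-fold dilution series.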

RSV A2 = assay: RSV NHBE EC50 (RSV A2 antiviral assay in NHBE cells); conditions: human respiratory syncytial virus, NHBE, read-out: RSV NHBE EC50
Procedure, shortened: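 Read-out: CellTiter-Glo luminescence of cell viability after 4 days at 37° C. Primary NHBE cells, 7,500/well, 3-fold compound dilutions, 0.05% DMSO, infected with RSV A2 (1×10^4.5 TCID/mL).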

RSV strain A2 = assay: microbe, parasite or virus in culture; conditions: human respiratory syncytial virus, read-out: RSV HEp-2 EC50
Procedure, shortened: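 Cytopathic-effect protection assay: HEp-2 cells (50,000/mL) infected with pre-titered RSV A2 onto 3-fold serial compound dilutions, incubated 4 days at 37° C. Cell viability read by CellTiter-Glo luminescence; percent inhibition derived against 0% and 100% virus-inhibition controls.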

DENV2 replicon = assay: DENV-2 Huh-7 Rep EC50 (replicon luminescence); conditions: Dengue virus, DENV2, Huh-7, 48 h
Procedure, shortened: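 EC50 derived from luminescence dose-response, normalised to DMSO-only 0% inhibition wells, after 1.5 h with EnduRen substrate. Compounds were first exposed for 48 h at 37° C to DENV2 replicon Huh-7 cells (5,000/well).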

[1] = 96 h, Table 3, H1-HeLa cells, 96 h
[2] = 96 h, Table 3, NHBE cells, RSV A2, 4 days
[3] = HEp-2, 96 h, Table 3, HEp-2 cells, RSV A2, 4 days
[4] = read-out: DENV-2 REP Huh7 EC50, Table 3, Huh-7 DENV2 replicon cells, 48 hours

| SMILES | EC50 (HRV16; [1]) [nM] | EC50 (RSV A2; [2]) [nM] | EC50 (RSV strain A2; [3]) [nM] | EC50 (DENV2 replicon; read-out: DENV-2 REP Huh7 EC50) [nM] | EC50 (DENV2 replicon; [4]) [nM] | EC50 (HRV16; HeLa, Table 5 comparative activity, 2',3'-OH vs -OC(O)iPr) [nM] | EC50 (RSV A2; Table 5 comparative activity, 2',3'-OH vs -OC(O)iPr) [nM] | EC50 (RSV strain A2; HEp-2, Table 5 comparative activity, 2',3'-OH vs -OC(O)iPr) [nM] |
| --- | --- | --- | --- | --- | --- | --- | --- | --- |
| CC(=O)O[C@H]1[C@H](c2ccc3c(N)ncnn23)O[C@](C#N)(COP(=O)(N[C@@H](C)C(=O)OCc2ccccc2)Oc2ccccc2)[C@H]1OC(C)=O (stereo partly drawn) [Example 126, (2R,3S,4S,5S)-5-(4-aminopyrrolo[2,1-f][1,2,4]triazin-7-yl)-2-((((((S)-1-(benzyloxy)-1-oxopropan-2-yl)amino)(phenoxy)phosphoryl)oxy)methyl)-2-cyanotetrahydrofuran-3,4-diyl diacetate] | 514 | 45 | 121 | 16000 |  |  |  |  |
| COC(=O)[C@H](C)NP(=O)(N[C@@H](C)C(=O)OC)OC[C@@]1(C#N)O[C@@H](c2ccc3c(N)ncnn23)[C@H](OC(C)=O)[C@@H]1OC(C)=O [Example 127] | > 50000 | 3360 | 8060 |  | > 50000 |  |  |  |
| COC(=O)[C@H](C)NP(=O)(N[C@@H](C)C(=O)OC)OC[C@@]1(C#N)O[C@@H](c2ccc3c(NC(C)=O)ncnn23)[C@H](OC(C)=O)[C@@H]1OC(C)=O [Example 128] | > 50000 | > 4140 | 18800 |  | > 50000 |  |  |  |
| COC(=O)[C@H](C)NP(=O)(OC[C@@]1(C#N)O[C@@H](c2ccc3c(N)ncnn23)[C@H](OC(C)=O)[C@@H]1OC(C)=O)Oc1ccccc1 (stereo partly drawn) [Example 129, (2R,3S,4S,5S)-5-(4-aminopyrrolo[2,1-f][1,2,4]triazin-7-yl)-2-cyano-2-((((((S)-1-methoxy-1-oxopropan-2-yl)amino)(phenoxy)phosphoryl)oxy)methyl)tetrahydrofuran-3,4-diyl diacetate] | 1110 | 77 | 154 | 15500 |  |  |  |  |
| COC(=O)[C@H](C)NP(=O)(OC[C@@]1(C#N)O[C@@H](c2ccc3c(NC(C)=O)ncnn23)[C@H](OC(C)=O)[C@@H]1OC(C)=O)Oc1ccccc1 (stereo partly drawn) [Example 132, (2R,3S,4S,5S)-5-(4-acetamidopyrrolo[2,1-f][1,2,4]triazin-7-yl)-2-cyano-2-((((((S)-1-methoxy-1-oxopropan-2-yl)amino)(phenoxy)phosphoryl)oxy)methyl) tetrahydrofuran-3,4-diyl diacetate] | 3480 | 145 | 434 | 29400 |  |  |  |  |
| CC(=O)O[C@H]1[C@H](c2ccc3c(N)ncnn23)O[C@](C#N)(COP(=O)(N[C@@H](C)C(=O)OC(C)C)N[C@@H](C)C(=O)OC(C)C)[C@H]1OC(C)=O [Example 133, ((2R,3S,4R,5S)-5-(4-aminopyrrolo[2,1-f][1,2,4]triazin-7-yl)-2-cyano-3,4-diacetatetetrahydrofuran-2-yl)methyl bis-isopropyl L-alaninate phosphate] | > 48900 | > 4070 | 18100 |  | > 50000 |  |  |  |
| CCOC(=O)[C@H](C)NP(=O)(N[C@@H](C)C(=O)OCC)OC[C@@]1(C#N)O[C@@H](c2ccc3c(N)ncnn23)[C@H](OC(C)=O)[C@@H]1OC(C)=O [Example 134, ((2R,3S,4R,5S)-5-(4-aminopyrrolo[2,1-f][1,2,4]triazin-7-yl)-2-cyano-3,4-diacetatetetrahydrofuran-2-yl)methyl bis-ethyl L-alaninate phosphate] | > 50000 | 1590 | 7340 |  | > 50000 |  |  |  |
| CCC(=O)O[C@H]1[C@H](c2ccc3c(N)ncnn23)O[C@](C#N)(COP(=O)(N[C@@H](C)C(=O)OC2CCN(CC)CC2(F)F)Oc2ccccc2)[C@H]1OC(=O)CC (stereo partly drawn) [Example 135, (2R,3S,4S,5S)-5-(4-Aminopyrrolo[2,1-f][1,2,4]triazin-7-yl)-2-cyano-2-((((((2S)-1-((1-ethyl-3,3-difluoropiperidin-4-yl)oxy)-1-oxopropan-2-yl)amino)(phenoxy)phosphoryl)oxy)methyl)tetrahydrofuran-3,4-diyl dipropionate] | 1080 | 33 | 738 | 30600 |  |  |  |  |
| CC(C)C(=O)O[C@H]1[C@H](c2ccc3c(N)ncnn23)O[C@](C#N)(COP(=O)(N[C@@H](C)C(=O)O[C@H]2CC[C@H](N)CC2)Oc2ccccc2)[C@H]1OC(=O)C(C)C (stereo partly drawn) [Example 136, (2R,3S,4S,5S)-2-((((((S)-1-(((1r,4S)-4-aminocyclohexyl)oxy)-1-oxopropan-2-yl)amino)(phenoxy)phosphoryl)oxy)methyl)-5-(4-aminopyrrolo[2,1-f][1,2,4]triazin-7-yl)-2-cyanotetrahydrofuran-3,4-diyl bis(2-methylpropanoate)] | 15000 | 244 | 2950 | 38200 |  |  |  |  |
| CCOC(=O)[C@H](C)NP(=O)(N[C@@H](C)C(=O)OCC)OC[C@@]1(C#N)O[C@@H](c2ccc3c(N)ncnn23)[C@H](OC(=O)C(C)C)[C@@H]1OC(=O)C(C)C [Example 137, ((2R,3S,4R,5S)-5-(4-aminopyrrolo[2,1-f][1,2,4]triazin-7-yl)-2-cyano-3,4-diisobutylatetetrahydrofuran-2-yl)methyl bis-ethyl L-alaninate phosphate] | 1040 | 65 | 467 |  | 38400 | 1040 | 65 | 467 |
| COC(=O)[C@H](C)NP(=O)(OC[C@@]1(C#N)O[C@@H](c2ccc3c(N)ncnn23)[C@H](OC(=O)C(C)C)[C@@H]1OC(=O)C(C)C)Oc1ccccc1 (stereo partly drawn) [Example 138, (2R,3S,4S,5S)-5-(4-aminopyrrolo[2,1-f][1,2,4]triazin-7-yl)-2-cyano-2-((((((S)-1-methoxy-1-oxopropan-2-yl)amino)(phenoxy)phosphoryl)oxy)methyl)tetrahydrofuran-3,4-diyl bis(2-methylpropanoate)] | 101 | 17 | 63 | 5200 |  |  |  |  |
| CCC(=O)O[C@H]1[C@H](c2ccc3c(N)ncnn23)O[C@](C#N)(COP(=O)(N[C@@H](C)C(=O)OC)Oc2ccccc2)[C@H]1OC(=O)CC (stereo partly drawn) [Example 141, (2R,3S,4S,5S)-5-(4-aminopyrrolo[2,1-f][1,2,4]triazin-7-yl)-2-cyano-2-((((((S)-1-methoxy-1-oxopropan-2-yl)amino)(phenoxy)phosphoryl)oxy)methyl)tetrahydrofuran-3,4-diyl dipropionate] | 253 | 23 | 80 | 7490 |  |  |  |  |
| COC(=O)[C@H](C)NP(=O)(N[C@@H](C)C(=O)OC)OC[C@@]1(C#N)O[C@@H](c2ccc3c(N)ncnn23)[C@H](OC(=O)C(C)C)[C@@H]1OC(=O)C(C)C [Example 149, ((2R,3S,4R,5S)-5-(4-aminopyrrolo[2,1-f][1,2,4]triazin-7-yl)-2-cyano-3,4-diisobutylatetetrahydrofuran-2-yl)methyl bis-methyl L-alaninate phosphate] | 3190 | 84 | 1150 |  | > 35800 |  |  |  |
| COC(=O)[C@H](C)NP(=O)(N[C@@H](C)C(=O)OC)OC[C@@]1(C#N)O[C@@H](c2ccc3c(NC(=O)C(C)C)ncnn23)[C@H](OC(=O)C(C)C)[C@@H]1OC(=O)C(C)C [Example 150, ((2R,3S,4R,5S)-5-(4-isobutyramidopyrrolo[2,1-f][1,2,4]triazin-7-yl)-2-cyano-3,4-diisobutylatetetrahydrofuran-2-yl)methyl bis-methyl L-alaninate phosphate] | 3480 | 70 | 1400 |  | > 50000 |  |  |  |
| COCC(=O)O[C@H]1[C@H](c2ccc3c(N)ncnn23)O[C@](C#N)(CO[P@@](=O)(N[C@@H](C)C(=O)OC(C)C)Oc2ccccc2)[C@H]1OC(=O)COC [Example 151, (2R,3S,4S,5S)-5-(4-aminopyrrolo[2,1-f][1,2,4]triazin-7-yl)-2-cyano-2-((((S)-(((S)-1-isopropoxy-1-oxopropan-2-yl)amino)(phenoxy)phosphoryl)oxy)methyl) tetrahydrofuran-3,4-diyl bis(2-methoxyacetate)] | 946 | 751 | 226 | 19500 |  |  |  |  |
| CC(C)OC(=O)[C@H](C)N[P@](=O)(OC[C@@]1(C#N)O[C@@H](c2ccc3c(N)ncnn23)[C@H](OC(=O)CC(C)(C)O)[C@@H]1OC(=O)CC(C)(C)O)Oc1ccccc1 [Example 152, (2R,3S,4S,5S)-5-(4-aminopyrrolo[2,1-f][1,2,4]triazin-7-yl)-2-cyano-2-((((S)-(((S)-1-isopropoxy-1-oxopropan-2-yl)amino)(phenoxy)phosphoryl)oxy)methyl) tetrahydrofuran-3,4-diyl bis(3-hydroxy-3-methylbutanoate)] | > 50000 | > 5000 | 2930 | > 50000 |  |  |  |  |
